Measurements as given in the supplement of paper PMC6045584.
± gives the standard deviation of the averaged measurements.

What was measured:
GEFITINIB = compound: COc1cc2ncnc(Nc3ccc(F)c(Cl)c3)c2cc1OCCCN1CCOCC1 [GEFITINIB]; assay: surviving fraction relative to DMSO-only wells; higher = less growth inhibition; settings: exposure time: 5 days
Method in brief: (§1)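 Lines were retained only if, across three screens, replicate Pearson r was >0.7 and median Z' was >0.3. Viability was measured as CellTiter-Glo luminescence and reported as surviving fraction relative to the median of DMSO-only wells. Readings followed 10 minutes at room temperature, after log-phase tumour cells seeded at 250–500 per well in 384-well plates had been exposed, from 24 hours after seeding, continuously for five days to inhibitors at 0.5, 1, 5, 10, 50, 100, 500 and 1000 nM.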

[1] = compound: CC(=O)NCC(=O)N1[C@@H]2CC[C@H]1c1ccc(Nc3ncc(C(F)(F)F)c(NC4CCC4)n3)cc12; assay: as above; settings: exposure time: 5 days
Method in brief: as §1

Test System | surviving fraction (GEFITINIB; 0.5 nM) | surviving fraction (GEFITINIB; 1 nM) | surviving fraction (GEFITINIB; 5 nM) | surviving fraction (GEFITINIB; 10 nM) | surviving fraction (GEFITINIB; 50 nM) | surviving fraction (GEFITINIB; 100 nM) | surviving fraction (GEFITINIB; 500 nM) | surviving fraction (GEFITINIB; 1000 nM) | surviving fraction ([1]; 0.5 nM) | surviving fraction ([1]; 1 nM) | surviving fraction ([1]; 5 nM) | surviving fraction ([1]; 10 nM) | surviving fraction ([1]; 50 nM) | surviving fraction ([1]; 100 nM) | surviving fraction ([1]; 500 nM) | surviving fraction ([1]; 1000 nM)
MCF7 BREAST | 0.935 ± 0.02 | 0.921 ± 0.032 | 0.924 ± 0.042 | 0.935 ± 0.023 | 0.965 ± 0.017 | 0.951 ± 0.046 | 0.979 ± 0.02 | 0.964 ± 0.027 | 0.864 ± 0.018 | 0.858 ± 0.028 | 0.808 ± 0.034 | 0.826 ± 0.021 | 0.776 ± 0.018 | 0.741 ± 0.027 | 0.656 ± 0.035 | 0.549 ± 0.026
MDAMB157 BREAST | 1.04 ± 0.033 | 0.968 ± 0.067 | 0.92 ± 0.057 | 1.01 ± 0.059 | 0.911 ± 0.1 | 1.02 ± 0.053 | 0.991 ± 0.026 | 0.864 ± 0.066 | 0.954 ± 0.082 | 0.854 ± 0.042 | 0.858 ± 0.081 | 0.895 ± 0.064 | 0.79 ± 0.11 | 0.498 ± 0.068 | 0.431 ± 0.077 | 0.216 ± 0.041
HELA CERVIX | 1.07 ± 0.044 | 1.05 ± 0.019 | 1.106 ± 0.0031 | 1.06 ± 0.033 | 1.15 ± 0.029 | 1.14 ± 0.022 | 1.18 ± 0.065 | 1.14 ± 0.058 | 0.991 ± 0.05 | 1.02 ± 0.092 | 0.977 ± 0.051 | 0.956 ± 0.048 | 0.697 ± 0.053 | 0.4 ± 0.052 | 0.168 ± 0.03 | 0.142 ± 0.015
143B BONE | 1.07 ± 0.023 | 1.08 ± 0.075 | 1.11 ± 0.084 | 1.1 ± 0.033 | 1.14 ± 0.077 | 1.12 ± 0.054 | 1.14 ± 0.11 | 1.13 ± 0.15 | 0.98 ± 0.021 | 0.996 ± 0.013 | 1.01 ± 0.026 | 0.966 ± 0.018 | 0.868 ± 0.0085 | 0.928 ± 0.015 | 0.597 ± 0.039 | 0.495 ± 0.056
CAL72 BONE | 1.01 ± 0.11 | 1.02 ± 0.088 | 1.05 ± 0.099 | 1.02 ± 0.082 | 1.11 ± 0.054 | 1.13 ± 0.098 | 1.07 ± 0.074 | 1.05 ± 0.11 | 1.06 ± 0.039 | 1.09 ± 0.051 | 1.12 ± 0.057 | 1.04 ± 0.011 | 0.917 ± 0.032 | 0.846 ± 0.022 | 0.571 ± 0.025 | 0.419 ± 0.026
NOS1 BONE | 1.1 ± 0.073 | 1.11 ± 0.032 | 1.25 ± 0.23 | 1.22 ± 0.29 | 1.17 ± 0.085 | 1.11 ± 0.046 | 0.871 ± 0.048 | 0.754 ± 0.031 | 1.25 ± 0.038 | 1.29 ± 0.1 | 1.53 ± 0.21 | 1.21 ± 0.095 | 0.84 ± 0.062 | 0.724 ± 0.055 | 0.302 ± 0.017 | 0.219 ± 0.028
VP229 BREAST | 1.14 ± 0.062 | 1.08 ± 0.09 | 1.07 ± 0.033 | 0.974 ± 0.098 | 0.875 ± 0.084 | 0.681 ± 0.042 | 0.347 ± 0.028 | 0.281 ± 0.008 | 1.08 ± 0.051 | 1.1 ± 0.12 | 1.02 ± 0.15 | 0.999 ± 0.04 | 0.917 ± 0.046 | 0.548 ± 0.016 | 0.624 ± 0.031 | 0.556 ± 0.057
PCI30 HEADNECK | 0.996 ± 0.063 | 1.01 ± 0.051 | 1.071 ± 0.0044 | 1.12 ± 0.017 | 0.959 ± 0.095 | 0.842 ± 0.028 | 0.466 ± 0.026 | 0.393 ± 0.033 | 0.891 ± 0.04 | 0.873 ± 0.077 | 1.01 ± 0.067 | 1.04 ± 0.084 | 0.964 ± 0.035 | 0.625 ± 0.032 | 0.567 ± 0.016 | 0.564 ± 0.0087
LNCAP PROSTATE | 1.1 ± 0.22 | 0.915 ± 0.067 | 0.9827 ± 0.0059 | 0.998 ± 0.043 | 0.939 ± 0.032 | 0.947 ± 0.03 | 1.03 ± 0.08 | 0.947 ± 0.12 | 0.859 ± 0.059 | 0.872 ± 0.052 | 0.77 ± 0.08 | 0.893 ± 0.19 | 0.416 ± 0.044 | 0.46 ± 0.046 | 0.689 ± 0.0089 | 0.664 ± 0.097
HCC1806 BREAST | 1.02 ± 0.11 | 1.08 ± 0.11 | 1.19 ± 0.1 | 1.2 ± 0.11 | 1.04 ± 0.14 | 0.925 ± 0.098 | 0.62 ± 0.069 | 0.61 ± 0.01 | 0.995 ± 0.055 | 0.914 ± 0.11 | 1.14 ± 0.041 | 1.11 ± 0.031 | 0.658 ± 0.057 | 0.471 ± 0.042 | 0.583 ± 0.076 | 0.407 ± 0.04
SCC003 HEADNECK | 1.02 ± 0.057 | 1.01 ± 0.056 | 1.1 ± 0.027 | 0.995 ± 0.11 | 0.945 ± 0.026 | 0.857 ± 0.035 | 0.54 ± 0.043 | 0.47 ± 0.029 | 0.911 ± 0.056 | 0.889 ± 0.096 | 1.05 ± 0.06 | 1.02 ± 0.027 | 0.988 ± 0.043 | 0.636 ± 0.063 | 0.425 ± 0.035 | 0.397 ± 0.076
SJSA1 BONE | 1.15 ± 0.059 | 1.59 ± 0.071 | 1.62 ± 0.018 | 0.602 ± 0.04 | 1.8 ± 0.065 | 1.67 ± 0.033 | 1.68 ± 0.052 | 1.68 ± 0.018 | 1.06 ± 0.086 | 1.08 ± 0.061 | 1.08 ± 0.047 | 1.03 ± 0.016 | 1.07 ± 0.026 | 0.95 ± 0.019 | 0.6 ± 0.013 | 0.531 ± 0.014
SUM149.B1*.S BREAST | 1.11 ± 0.044 | 1.1 ± 0.027 | 1.11 ± 0.021 | 1.1 ± 0.023 | 1.1 ± 0.026 | 1.1 ± 0.06 | 1.03 ± 0.034 | 0.98 ± 0.032 | 1 ± 0.017 | 1.01 ± 0.037 | 0.979 ± 0.017 | 0.976 ± 0.038 | 0.938 ± 0.047 | 0.685 ± 0.049 | 0.569 ± 0.024 | 0.499 ± 0.043
SG31 HEADNECK | 1.14 ± 0.13 | 1.09 ± 0.18 | 1.1 ± 0.28 | 1.11 ± 0.24 | 0.855 ± 0.24 | 0.845 ± 0.23 | 0.732 ± 0.2 | 0.54 ± 0.11 | 0.909 ± 0.13 | 1.05 ± 0.18 | 1.03 ± 0.26 | 0.808 ± 0.041 | 0.913 ± 0.052 | 0.705 ± 0.069 | 0.749 ± 0.076 | 0.717 ± 0.1
SAOS2 BONE | 1.11 ± 0.021 | 1.04 ± 0.065 | 1.21 ± 0.035 | 1.09 ± 0.05 | 1.12 ± 0.061 | 1.13 ± 0.06 | 1.01 ± 0.038 | 0.907 ± 0.08 | 1.03 ± 0.017 | 1.045 ± 0.0052 | 1.08 ± 0.069 | 1.06 ± 0.092 | 1.03 ± 0.065 | 0.704 ± 0.049 | 0.157 ± 0.0075 | 0.0957 ± 0.0029
CADOES1 SOFT TISSUE | 1.01 ± 0.045 | 0.9 ± 0.058 | 0.852 ± 0.063 | 0.906 ± 0.13 | 0.824 ± 0.12 | 0.942 ± 0.11 | 0.953 ± 0.12 | 0.995 ± 0.16 | 0.969 ± 0.1 | 0.955 ± 0.099 | 0.883 ± 0.094 | 0.849 ± 0.1 | 0.565 ± 0.074 | 0.109 ± 0.011 | 0.0853 ± 0.005 | 0.0867 ± 0.0065
ASKA SYNOVIAL | 1.13 ± 0.052 | 1.11 ± 0.06 | 1.05 ± 0.085 | 1.16 ± 0.051 | 1.19 ± 0.077 | 1.16 ± 0.073 | 1.08 ± 0.053 | 1.1 ± 0.058 | 0.973 ± 0.052 | 0.908 ± 0.012 | 0.972 ± 0.085 | 0.912 ± 0.084 | 0.365 ± 0.018 | 0.335 ± 0.023 | 0.34 ± 0.012 | 0.386 ± 0.035
C33A CERVIX | 0.925 ± 0.067 | 1.01 ± 0.063 | 1.01 ± 0.018 | 0.969 ± 0.049 | 0.91 ± 0.052 | 0.973 ± 0.02 | 0.551 ± 0.054 | 0.457 ± 0.058 | 0.77 ± 0.079 | 0.707 ± 0.032 | 0.895 ± 0.062 | 0.953 ± 0.069 | 0.665 ± 0.087 | 0.515 ± 0.03 | 0.396 ± 0.011 | 0.351 ± 0.012
MDAMB436 BREAST | 1.02 ± 0.091 | 1.01 ± 0.06 | 0.994 ± 0.026 | 1.09 ± 0.098 | 0.993 ± 0.12 | 1.03 ± 0.084 | 1.08 ± 0.098 | 1.08 ± 0.1 | 0.912 ± 0.039 | 0.875 ± 0.053 | 0.908 ± 0.033 | 0.882 ± 0.12 | 0.937 ± 0.1 | 0.762 ± 0.079 | 0.435 ± 0.021 | 0.391 ± 0.03
H23 LUNG | 1.01 ± 0.07 | 0.997 ± 0.032 | 0.989 ± 0.014 | 0.918 ± 0.03 | 0.603 ± 0.075 | 0.458 ± 0.053 | 0.356 ± 0.05 | 0.346 ± 0.0093 | 0.971 ± 0.037 | 0.95 ± 0.015 | 0.936 ± 0.037 | 0.931 ± 0.029 | 0.949 ± 0.04 | 0.69 ± 0.051 | 0.471 ± 0.0074 | 0.421 ± 0.014
